Measured values from patent US20220168314A1, “MEDICAMENT FOR PROPHYLAXIS OR TREATMENT OF PULMONARY FIBROSIS” (MITSUBISHI TANABE PHARMA CORPORATION, priority 2019, published 2022).
One block for each compound: values may come before it.

What was measured:
[1] = system: bleomycin intra airway administration induced mouse pulmonary fibrosis model; assay: Lung functions in bleomycin intra airway administration induced mouse pulmonary fibrosis model (Example 1); type: in vivo; conditions: Day 21; oral gavage Day 7-21; compound (I) 10 mg/kg once a day, eplerenone 50 mg/kg twice a day; vs bleomycin control group
Procedure: (§1) C57/BL6NTAC mice (male; body weight at start of a test: 25 g) (manufactured by The Jackson Laboratory) were grouped into the following 4 groups (12 mice in each group):
(§2) Group 1: normal group Group 2: no drug administration group (control group) Group 3: drug (the compound (I)) administration group Group 4: drug (eplerenone; positive control) administration group
(§3) On a day (Day 0) when the test was started, bleomycin (3.25 U/kg) was administered dropwise through airways to the mice of Groups 2-4 as test groups. Instead of bleomycin, saline was administered dropwise through airways to the mice of Group 1 as a normal group. On a seventh day (Day 7) after the start of the test, with a dosing schedule of twice a day in the morning and afternoon, oral gavage administration (twice in the morning and afternoon) of a vehicle (0.1% HCO60+0.5% CMC) was started for the mice of Groups 1 and 2; a 2 mg/ml solution of the compound (I) was prepared and oral gavage administration (in the morning) thereof at a dose of 10 mg/kg and oral gavage administration (in the afternoon) of a vehicle (0.1% HCO60+0.5% CMC) were started for the mice of Group 3; and oral gavage administration (twice in the morning and afternoon) of eplerenone at a dose of 50 mg/kg was started for the mice of Group 4. Thereafter, until a 21st day (Day 21) after the start of the test, the administrations were continued at the same dosing schedules. After the administrations were completed (Day 21), the following evaluation items were examined.
The following evaluation items were measured using a commercially available respiratory and lung function evaluation system (measurement site: around an airway). Evaluation of 4 items including: 1) inspiratory capacity (mL); 2) compliance (mL/cmH2O); 3) elastance) (cmH2O/mL); and 4) resistance (cmH2O.s/mL)
The “inspiratory capacity” corresponds to an amount of air discharged from the lungs at a stage when slowly breathing out to an end of a breath has completed, and is an indicator of a volume of the lungs. As pulmonary fibrosis progresses and the lung hardens, the volume of the lungs shrinks, and the inspiratory capacity decreases.
The “compliance” indicates a change in a lung capacity due to a certain change in pressure. […] As pulmonary fibrosis progresses and the lungs harden, the volume of the lungs shrinks, and the compliance decreases.
The “elastance” is a value represented by a reciprocal of the compliance, and is an indicator representing the difficulty for the lungs to stretch. As pulmonary fibrosis progresses and the lungs harden, the elastance increases.
The “resistance” means an airway resistance. The resistance is a resistance received by an air current in respiration, and a larger resistance means that it is harder for air to flow through the airway.

[2] = system: bleomycin subcutaneous continuous infusion induced mouse pulmonary fibrosis model; assay: Lung functions in bleomycin subcutaneous continuous infusion induced mouse pulmonary fibrosis model (Example 2); type: in vivo
Procedure: (§4) Body weights of the mice of the test group were measured daily, and, on the seventh day (Day 7) after the start of the test, the mice of the test group were randomly grouped as follows using an amount of decrease in body weight as an indicator.
(§5) Group 2: no drug administration group (control group) (12 mice) Group 3: drug (the compound (I), 3 mg/kg) administration group (12 mice) Group 4: drug (the compound (I), 10 mg/kg) administration group (12 mice) Group 5: drug (the compound (I), 30 mg/kg) administration group (12 mice)
(§6) From an eighth day (Day 8) after the start of the test, oral gavage administration of a vehicle (0.1 ml per 10 g body weight) to the mice of Group 1 as the normal group and the mice of Group 2 as the no drug administration group was started, and, on the other hand, oral gavage administration of the compound (I) of a predetermined dosage to the mice of the drug administration groups of Groups 3-5 was started (for all groups, once a day in the morning). Thereafter, until a 21st day (Day 21) after the start of the test, the administrations were continued. After the administrations were completed, the following items were evaluated.
Evaluation of 4 items including: 1) inspiratory capacity (mL); 2) compliance (mL/cmH2O); 3) elastance) (cmH2O/mL); and 4) resistance (cmH2O.s/mL)

[3] = Concentration of the compound (I) in blood plasma, Example 1; type: in vivo, mouse; conditions: 10 mg/kg oral
Procedure: as §3, with “After the administrations were completed (Day 21), the following evaluation items were examined.” left out
At 2 hours (before the above evaluations) and at 18 hours from the final administration of the compound (I) (Day 21), a small amount of blood was collected from a tail vein under anesthesia, and plasma was separated with an ice-cooled centrifuge, and a concentration (nM) of the compound (I) in the plasma was measured using a conventional method.

[4] = system: gene expression associated with pulmonary fibrosis; assay: Gene expression fluctuation associated with pulmonary fibrosis (mRNA, real time PCR, upper lung lobes), Example 1; type: in vivo, mouse; conditions: Day 21, compound (I) 10 mg/kg once a day, eplerenone 50 mg/kg twice a day
Procedure: as §1, §2, §3
(iii) Evaluation of Gene Expression Fluctuation Associated with Pulmonary Fibrosis (Quantification of mRNA; Fold Increase) (Upper Lung Lobes)
According to a conventional method, mRNA was extracted from a homogenized upper lung lobe, and an extremely small amount of the mRNA was quantified using a real time PCR system.

[5] = Concentration of the compound (I) in blood plasma, Example 2; type: in vivo, mouse
Procedure: as §6
Evaluation of a concentration (nM) of the compound (I) in a blood plasma at 2 hours (before the above evaluations) and at 24 hours after the final administration (Day 21) (similar to Example 1, blood samples obtained by tail vain blood sampling were evaluated.)

[6] = system: bleomycin subcutaneous continuous infusion induced mouse pulmonary fibrosis model; assay: Lung pathological tissue (picrosirius red staining, hydroxyproline content), Example 2; type: in vivo; conditions: for hydroxyproline content (μg): right lung lobes
Procedure: as §4, §5, §6
i) Evaluation by Picrosirius Red Staining (Left Lung Lobes)
ii) Evaluation of Hydroxyproline Content (μg) (Right Lung Lobes)

[7] = system: bleomycin intra airway administration induced mouse pulmonary fibrosis model; assay: Lung pathological tissue (picrosirius red staining, hydroxyproline content), Example 1; type: in vivo; conditions: Day 21, compound (I) 10 mg/kg once a day, eplerenone 50 mg/kg twice a day; for positive rate (PSR Positive %) in picrosirius red staining: left lung lobes; for hydroxyproline content (μg): lower lung lobes and middle lung lobe
Procedure: as §1, §2, §3
Pulmonary fibrosis is caused by that activated fibroblasts are accumulated at a fibrosis site and a large amount of type I collagen is produced. Therefore, based on a degree of collagen accumulation in a lung tissue, a degree of pulmonary fibrosis can be evaluated. Type I collagen and type III collagen in a tissue are stained by picrosirius red staining. Therefore, a situation of collagen accumulation can be image-diagnosed, and quantitative evaluation can also be performed by calculating a staining positive rate.
Specifically, the above staining was performed on a tissue section of the lungs, and an area of a stained site (fibrosis site) was measured and evaluated.
Hydroxyproline is a major component of collagen and is substantially absent in other proteins. Therefore, by measuring a content of hydroxyproline in a tissue, an amount of collagen can be evaluated.

CYP3A4 = CYP3A4 (Homo sapiens, UniProt P08684); conditions: background statement; cited from earlier work
Chain of CYP3A4 (P08684 whole entry): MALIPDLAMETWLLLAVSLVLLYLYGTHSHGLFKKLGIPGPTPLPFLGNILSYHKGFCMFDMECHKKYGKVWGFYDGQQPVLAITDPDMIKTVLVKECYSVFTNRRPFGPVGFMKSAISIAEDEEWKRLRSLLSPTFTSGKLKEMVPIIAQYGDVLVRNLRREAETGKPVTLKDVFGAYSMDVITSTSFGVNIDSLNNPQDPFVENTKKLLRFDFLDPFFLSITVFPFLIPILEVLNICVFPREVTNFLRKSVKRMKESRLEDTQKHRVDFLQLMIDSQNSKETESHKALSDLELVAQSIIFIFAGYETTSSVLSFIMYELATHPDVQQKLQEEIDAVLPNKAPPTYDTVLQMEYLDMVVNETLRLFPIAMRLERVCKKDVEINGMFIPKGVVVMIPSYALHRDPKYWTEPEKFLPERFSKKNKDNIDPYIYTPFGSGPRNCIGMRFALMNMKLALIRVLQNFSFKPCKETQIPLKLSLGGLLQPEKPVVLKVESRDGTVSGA

[8] = system: bleomycin-induced pulmonary fibrosis mice; conditions: literature reports; cited from earlier work
[9] = 30 mg/kg oral once a day, Day 8-21 (Group 5)
[10] = 3, 10 and 30 mg/kg oral once a day, Day 8-21 (Groups 3-5), dose-dependent

- concentration of the compound (I) in a blood plasma ([3]; 2 hours after the final administration (Day 21)): sufficient concentration
- concentration of the compound (I) in a blood plasma ([3]; 18 hours after the final administration (Day 21)): sufficient concentration
- concentration of the compound (I) in a blood plasma ([5]; 2 hours after the final administration (Day 21), 3, 10, 30 mg/kg oral): dose-dependent concentration
- concentration of the compound (I) in a blood plasma ([5]; 24 hours after the final administration (Day 21), 30 mg/kg oral): sufficient concentration
SMILES: CC1(C)Oc2cc(NS(C)(=O)=O)ccc2N(c2ccc(F)cc2)C1=O [compound (I)]
- compliance (mL/cmH2O) [1]: significantly improving
- elastance (cmH2O/mL) [1]: significantly improving
- inspiratory capacity (mL) [1]: significantly improved to an extent exceeding the effect of eplerenone
- resistance (cmH2O.s/mL) [1]: very significantly improved to a level of the normal group exceeding the effect of eplerenone
- inspiratory capacity (mL) ([2]; 10 mg/kg oral once a day, Day 8-21 (Group 4)): significantly improved
- inspiratory capacity (mL) [2, 9]: significantly improved
- resistance (cmH2O.s/mL) [2, 9]: significantly improved
- compliance (mL/cmH2O) [2, 10]: significantly improved
- elastance (cmH2O/mL) [2, 10]: significantly improved
- CTGF gene expression [4]: significantly reduced
- Ccl2 gene expression [4]: significantly reduced
- PAI-1 gene expression [4]: significantly reduced
- TGFβ gene expression [4]: tendency to decrease
- fibronectin gene expression [4]: significantly reduced
- type I collagen gene expression [4]: significantly reduced
- type III collagen gene expression [4]: significantly reduced
- type IV collagen gene expression [4]: significantly reduced
- vimentin gene expression [4]: significantly reduced
- αSMA gene expression [4]: significantly reduced
- positive rate in picrosirius red staining ([6]; left lung lobes, all the doses 3, 10, 30 mg/kg oral once a day (Groups 3-5)): significantly decreased
- hydroxyproline content (μg) ([6]; 3 mg/kg oral once a day, Day 8-21 (Group 3)): significantly decreased
- hydroxyproline content (μg) [6, 9]: significantly decreased
- positive rate (PSR Positive %) in picrosirius red staining [7]: significantly improving
- hydroxyproline content (μg) [7]: significantly improved to an extent exceeding the effect of eplerenone

SMILES: COC(=O)[C@@H]1CC2=CC(=O)CC[C@]2(C)[C@@]23O[C@@H]2C[C@@]2(C)[C@@H](CC[C@@]24CCC(=O)O4)[C@H]13 [eplerenone, reference compound]
- compliance (mL/cmH2O) [1]: significantly improved
- elastance (cmH2O/mL) [1]: significantly improved
- inspiratory capacity (mL) [1]: significantly improved
- resistance (cmH2O.s/mL) [1]: significantly improved
- metabolizing enzyme (CYP3A4): mainly metabolized by CYP3A4
- CTGF gene expression [4]: significantly reduced
- Ccl2 gene expression [4]: significantly reduced
- PAI-1 gene expression [4]: significantly reduced
- TGFβ gene expression [4]: tendency to increase
- fibronectin gene expression [4]: significantly reduced
- type I collagen gene expression [4]: could not reduce
- type III collagen gene expression [4]: could not reduce
- type IV collagen gene expression [4]: could not reduce
- vimentin gene expression [4]: significantly reduced
- αSMA gene expression [4]: could not reduce
- positive rate (PSR Positive %) in picrosirius red staining [7]: significantly improved
- hydroxyproline content (μg) [7]: significantly improved

SMILES: CC(=O)S[C@@H]1CC2=CC(=O)CC[C@]2(C)[C@H]2CC[C@@]3(C)[C@@H](CC[C@@]34CCC(=O)O4)[C@H]12 [spironolactone]
- accumulation of hydroxyproline (indicator of tissue fibrosis) [8]: improves
